In patent US20190246646A1 (priority 2016, published 2019):

How the values were obtained:
M. oryzae BOA102 [1] = conditions: for mycelium color / phenotype of the fungal colony: BOA102 exposed to single commercial compound, dual plate; for mycelium growth measured as colony diameter: Student T-test p<0.05
M. oryzae mycelium = conditions: compound added to fungal growth media; untreated black; cited from earlier work
M. oryzae BOA102 [2] = conditions: grown in the presence of Tricyclazole

Row | SMILES | mycelium color / phenotype of the fungal colony (M. oryzae BOA102 [1]) | mycelium growth measured as colony diameter (M. oryzae BOA102 [1]) | pigmentation of M. oryzae mycelium (M. oryzae mycelium) | color of the mycelium (DHN melanin inhibition phenotype) (M. oryzae BOA102 [2])
1 | CC(=O)OCCC(C)C [1-butanol-3-methyl-acetate] | do not induce appreciable phenotype/color variations | significant reduction | – | –
2 | CC(C)CCO [1-butanol-3-methyl] | shift from black to white | significant reduction | – | –
3 | CC(C)CO [1-propanol-2-methyl] | do not induce appreciable phenotype/color variations | significant reduction | – | –
4 | Cc1ccc(C(=O)NC[C@@H](NC(=O)OCC(F)(F)F)C(C)C)cc1 [Tolprocab] | – | – | white | –
5 | Cc1cccc2sc3nncn3c12 [Tricyclazole] | – | – | orange | orange color
6 | CCO [ethanol] | do not induce appreciable phenotype/color variations | No effect | – | –
